{"source": "patent US11072626B2", "about": "“Small molecule inhibitors of Galectin-3” (BRISTOL-MYERS SQUIBB COMPANY, priority 2017, dated 2021)", "data": [{"molecular_target": "His-tagged recombinant human Gal-3 (hGal-3) (Homo sapiens (Human), UniProt P17931)", "sequence (P17931 whole entry)": "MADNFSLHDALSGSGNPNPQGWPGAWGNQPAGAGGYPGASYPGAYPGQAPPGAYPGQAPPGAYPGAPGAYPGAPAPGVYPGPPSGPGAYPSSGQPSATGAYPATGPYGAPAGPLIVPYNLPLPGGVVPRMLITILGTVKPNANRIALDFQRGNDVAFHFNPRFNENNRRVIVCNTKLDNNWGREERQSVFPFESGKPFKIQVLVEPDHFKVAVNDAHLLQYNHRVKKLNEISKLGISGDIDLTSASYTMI", "test": "Gal-3 HTRF assay (hGal-3 / B-ASF)", "type": "binding", "details": "15 nM hGal-3, 15 nM B-ASF, table after Example 20, read-out: hGal3 IC50", "description": "(§1) ASSAY BUFFER Composition: 25 mM HEPES, 100 mM NaCl, 0.005% Tween 20, 0.05% BSA prepared in sterile water (all reagents from Sigma)\n(§2) Positive Control: 100% DMSO (1 μl)+His-tagged hGal-3 (20 μL)+B-ASF (20 μl)+Anti-His Terbium Antibody (5 μl)+Strep d2 Antibody (5 μl).\n(§3) Negative Control: 100% DMSO (1 μl)+His-tagged hGal-3 (20μL)+Anti His Terbium Antibody (5 μl)+Strep d2 Aantibody (5 μl).\n(§4) PROTOCOL: The Gal-3 assays were performed in 384 white Opti plates in three replicates at room temperature with gentle shaking at 250-300 rpm From the original stocks, […] working stock concentrations of His-tagged recombinant human Gal-3 (hGal-3) and that of B-ASF were prepared. From the working stock, 20 μl of hGal-3 (15 nM) and 20 μl B-ASF (15 nM) were added to the plates. In Negative Control, only hGal-3 was added. A concentration range of 50× working stocks were prepared for the compounds in 100% DMSO. Aliquots of 1 uL of the compounds were added to the wells and pre-incubated with 20 μl hGal-3 per well for 30 minutes Then 20 μl B-ASF were added and incubated for another 1 hour. To detect the signal, 5 μ(final conc. of 1.0 nM) terbium labelled Anti-His antibody was added and incubated for 30 min followed by adding 5 μ(final conc. of 20 nM) Streptavidin d2 and incubation for another 1 hour. The assay signal was detected using HTRF screen protocol (Excitation wavelength=340 nm, emission wavelength=615 nm/665 nm) on Envision 2104 Multilabel Reader. Data analysed using Toolset and Curve Master. Results are reported in the experimental section (IC50 in μM).", "units": {"IC50": "nM"}, "values": [{"molecule": "O=C(CO[C@@H]1[C@@H](n2cc(-c3cc(F)c(F)c(F)c3)nn2)[C@@H](O)[C@@H](CO)O[C@@H]1Sc1ccc(Cl)c(Cl)c1)N1CCCCC1", "note": "[Example 21]", "IC50": 225}, {"molecule": "O=C(CO[C@@H]1[C@@H](n2cc(-c3cc(F)c(F)c(F)c3)nn2)[C@@H](O)[C@@H](CO)O[C@@H]1Sc1ccc(Cl)c(Cl)c1)N1CCS(=O)(=O)CC1", "note": "[Example 22, 2-(((2R,3R,4S,5R,6R)-2-((3,4-dichlorophenyl)thio)-5-hydroxy-6-(hydroxymethyl)-4-(4-(3,4,5-trifluorophenyl)-1H-1,2,3-triazol-1-yl)tetrahydro-2H-pyran-3-yl)oxy)-1-(1,1-dioxidothiomorpholino)ethan-1-one]", "IC50": 43}, {"molecule": "O=C(CO[C@@H]1[C@@H](n2cc(-c3cc(F)c(F)c(F)c3)nn2)[C@@H](O)[C@@H](CO)O[C@@H]1Sc1ccc(Cl)c(Cl)c1)N1CCC[C@@H](O)C1", "note": "[Example 23]", "IC50": 60}, {"molecule": "O=C(CO[C@@H]1[C@@H](n2cc(-c3cc(F)c(F)c(F)c3)nn2)[C@@H](O)[C@@H](CO)O[C@@H]1Sc1ccc(Cl)c(Cl)c1)N1CCCC(F)(F)C1", "note": "[Example 24]", "IC50": 150}, {"molecule": "O=C(CO[C@@H]1[C@@H](n2cc(-c3cc(F)c(F)c(F)c3)nn2)[C@@H](O)[C@@H](CO)O[C@@H]1Sc1ccc(Cl)c(Cl)c1)N1CCOCC1", "note": "[Example 25, 2-(((2R,3R,4S,5R,6R)-2-((3,4-dichlorophenyl)thio)-5-hydroxy-6-(hydroxymethyl)-4-(4-(3,4,5-trifluorophenyl)-1H-1,2,3-triazol-1-yl)tetrahydro-2H-pyran-3-yl)oxy)-1-morpholinoethan-1-one]", "IC50": 76}, {"molecule": "O=C1CN(C(=O)CO[C@@H]2[C@@H](n3cc(-c4cc(F)c(F)c(F)c4)nn3)[C@@H](O)[C@@H](CO)O[C@@H]2Sc2ccc(Cl)c(Cl)c2)CCN1", "note": "[Example 26]", "IC50": 86}, {"molecule": "O=C(CO[C@@H]1[C@@H](n2cc(-c3cc(F)c(F)c(F)c3)nn2)[C@@H](O)[C@@H](CO)O[C@@H]1Sc1ccc(Cl)c(Cl)c1)N1CC[C@@H](O)C1", "note": "[Example 27]", "IC50": 70}, {"molecule": "O=C(CO[C@@H]1[C@@H](n2cc(-c3cc(F)c(F)c(F)c3)nn2)[C@@H](O)[C@@H](CO)O[C@@H]1Sc1ccc(Cl)c(Cl)c1)N1CC[C@H](O)C1", "note": "[Example 28]", "IC50": 48}, {"molecule": "O=C(CO[C@@H]1[C@@H](n2cc(-c3cc(F)c(F)c(F)c3)nn2)[C@@H](O)[C@@H](CO)O[C@@H]1Sc1ccc(Cl)c(Cl)c1)N1CCC[C@H]1CO", "note": "[Example 29]", "IC50": 72}, {"molecule": "CC(=O)NC1CN(C(=O)CO[C@@H]2[C@@H](n3cc(-c4cc(F)c(F)c(F)c4)nn3)[C@@H](O)[C@@H](CO)O[C@@H]2Sc2ccc(Cl)c(Cl)c2)C1", "note": "[Example 30]", "IC50": 800}, {"molecule": "O=C(CO[C@@H]1[C@@H](n2cc(-c3cc(F)c(F)c(F)c3)nn2)[C@@H](O)[C@@H](CO)O[C@@H]1Sc1ccc(Cl)c(Cl)c1)N1CC(O)C1", "note": "[Example 31]", "IC50": 90}, {"molecule": "COCCN(C)C(=O)CO[C@@H]1[C@@H](n2cc(-c3cc(F)c(F)c(F)c3)nn2)[C@@H](O)[C@@H](CO)O[C@@H]1Sc1ccc(Cl)c(Cl)c1", "note": "[Example 32]", "IC50": 700}, {"molecule": "O=C(CO[C@@H]1[C@@H](n2cc(-c3cc(F)c(F)c(F)c3)nn2)[C@@H](O)[C@@H](CO)O[C@@H]1Sc1ccc(Cl)c(Cl)c1)N1CCC[C@H](O)C1", "note": "[Example 33, 2-(((2R,3R,4S,5R,6R)-2-((3,4-dichlorophenyl)thio)-5-hydroxy-6-(hydroxymethyl)-4-(4-(3,4,5-trifluorophenyl)-1H-1,2,3-triazol-1-yl)tetrahydro-2H-pyran-3-yl)oxy)-1-((S)-3-hydroxypiperidin-1-yl)ethan-1-one]", "IC50": 60}, {"molecule": "O=C(CO[C@@H]1[C@@H](n2cc(-c3cc(F)c(F)c(F)c3)nn2)[C@@H](O)[C@@H](CO)O[C@@H]1Sc1ccc(Cl)c(Cl)c1)NC1CC2(CC(O)C2)C1", "note": "(stereo partly drawn) [Example 34]", "IC50": 660}]}, {"molecular_target": "His-tagged recombinant human Gal-3 (hGal-3) (Homo sapiens (Human), UniProt P17931)", "test": "Gal-3 HTRF assay (hGal-3 / B-ASF)", "type": "binding", "details": "15 nM hGal-3, 15 nM B-ASF, three replicates, room temperature, read-out: hGal3 IC50", "description": "as §1, §2, §3, §4", "units": {"IC50": "nM"}, "values": [{"molecule": "O=C(CO[C@@H]1[C@@H](n2cc(-c3cc(F)c(F)c(F)c3)nn2)[C@@H](O)[C@@H](CO)O[C@@H]1[S@+]([O-])c1ccc(Cl)c(Cl)c1)N1CCS(=O)(=O)CC1", "note": "[Example 35, 2-(((2R,3R,4S,5R,6R)-2-((R)-(3,4-dichlorophenyl)sulfinyl)-5-hydroxy-6-(hydroxymethyl)-4-(4-(3,4,5-trifluorophenyl)-1H-1,2,3-triazol-1-yl)tetrahydro-2H-pyran-3-yl)oxy)-1-(1,1-dioxidothiomorpholino)ethan-1-one]", "IC50": 50}, {"molecule": "O=C(CO[C@@H]1[C@@H](n2cc(-c3cc(F)c(F)c(F)c3)nn2)[C@@H](O)[C@@H](CO)O[C@@H]1[S@@+]([O-])c1ccc(Cl)c(Cl)c1)N1CCC[C@H](O)C1", "note": "[Example 36, 2-(((2R,3R,4S,5R,6R)-2-((S)-(3,4-dichlorophenyl)sulfinyl)-5-hydroxy-6-(hydroxymethyl)-4-(4-(3,4,5-trifluorophenyl)-1H-1,2,3-triazol-1-yl)tetrahydro-2H-pyran-3-yl)oxy)-1-((S)-3-hydroxypiperidin-1-yl)ethan-1-one]", "IC50": 70}, {"molecule": "O=C(CO[C@@H]1[C@@H](n2cc(-c3cc(F)c(F)c(F)c3)nn2)[C@@H](O)[C@@H](CO)O[C@@H]1[S@@+]([O-])c1ccc(Cl)c(Cl)c1)N1CCOCC1", "note": "[Example 37, 2-(((2R,3R,4S,5R,6R)-2-((S)-(3,4-dichlorophenyl)sulfinyl)-5-hydroxy-6-(hydroxymethyl)-4-(4-(3,4,5-trifluorophenyl)-1H-1,2,3-triazol-1-yl)tetrahydro-2H-pyran-3-yl)oxy)-1-morpholinoethan-1-one]", "IC50": 80}, {"molecule": "O=C(O)/C=C\\O[C@@H]1[C@@H](n2cc(-c3cc(F)c(F)c(F)c3)nn2)[C@@H](O)[C@@H](CO)O[C@@H]1Sc1ccc(Cl)c(Cl)c1", "note": "[Example 40 (cis-isomer), (Z)-3-(((2R,3R,4S,5R,6R)-2-((3,4-dichlorophenyl)thio)-5-hydroxy-6-(hydroxymethyl)-4-(4-(3,4,5-trifluorophenyl)-1H-1,2,3-triazol-1-yl)tetrahydro-2H-pyran-3-yl)oxy)acrylic acid]", "IC50": 680}, {"molecule": "O=C(O)/C=C/O[C@@H]1[C@@H](n2cc(-c3cc(F)c(F)c(F)c3)nn2)[C@@H](O)[C@@H](CO)O[C@@H]1Sc1ccc(Cl)c(Cl)c1", "note": "[Example 40 (trans-isomer), (E)-3-(((2R,3R,4S,5R,6R)-2-((3,4-dichlorophenyl)thio)-5-hydroxy-6-(hydroxymethyl)-4-(4-(3,4,5-trifluorophenyl)-1H-1,2,3-triazol-1-yl)tetrahydro-2H-pyran-3-yl)oxy)acrylic acid]", "IC50": 60}, {"molecule": "O=C(O)/C=C/O[C@@H]1[C@@H](n2cc(C3CC3)nn2)[C@@H](O)[C@@H](CO)O[C@@H]1Sc1ccc(Cl)c(Cl)c1", "note": "[Example 41, (E)-3-(((2R,3R,4S,5R,6R)-4-(4-cyclopropyl-1H-1,2,3-triazol-1-yl)-2-((3,4-dichlorophenyl)thio)-5-hydroxy-6-(hydroxymethyl)tetrahydro-2H-pyran-3-yl)oxy)acrylic acid]", "IC50": 2740}, {"molecule": "CO[C@@H]1[C@@H](n2cc(C(=O)O)nn2)[C@@H](O)[C@@H](CO)O[C@@H]1Sc1ccc(Cl)c(Cl)c1", "note": "[Example 42, 1-((2R,3R,4S,5R,6R)-2-((3,4-dichlorophenyl)thio)-5-hydroxy-6-(hydroxymethyl)-3-methoxytetrahydro-2H-pyran-4-yl)-1H-1,2,3-triazole-4-carboxylic acid]", "IC50": 5000}]}]}
